Measured values as given in paper PMC7345083, “Vancomycin-Lipopeptide Conjugates with High Antimicrobial Activity on Vancomycin-Resistant Enterococci” (Pharmaceuticals, 2020).
Converted amounts (≈) assume the structure as drawn.

What was measured:
[1] = test system: Enterococcus casseliflavus ATCC 700327 (vanC); assay type: cell-based; details: ATCC 700327, 18 h
Experimental: (§1) The minimum inhibitory concentration (MIC) was determined by microdilution following the EUCAST and CLSI guidelines via the broth microdilution assay on a 96-well plate. Substances were dissolved in saline solution (0.9%) at a concentration equimolar to 1.28 mg/mL vancomycin. With an increasing hydrophobicity, some substances had to be pre-dissolved in DMSO. The final concentration of DMSO remained below 1.5% and was compared to the DMSO control (no antimicrobial effect was observed up to the highest concentration tested (10%)). All substances were serially diluted on the 96-well plate using Mueller-Hinton-Broth II (cation adjusted). Vancomycin was always used as a control. For bacterial loading, an overnight culture of the referring strain was taken and adjusted to a turbidity corresponding to 10^8 cfu/mL. The bacterial suspension was further diluted to load a bacterial number of 10^6 cfu/mL on the 96-well plate and incubate it for 18 h at 35 ± 1 °C, as described before. MIC was defined as the lowest concentration without visible growth.

[2] = test system: Enterococcus faecium UL602570 (vanA, clinical isolate); assay type: cell-based; details: for MIC median / MIC range: UL602570 (vanA, clinical isolate, 18 h)
Experimental: as §1

[3] = test system: E. faecalis ATCC 51299 (vanB); assay type: cell-based, Enterococcus faecalis; details: ATCC 51299, 18 h
Experimental: as §1

[4] = test system: E. faecium ATCC 51559 (vanA); assay type: cell-based, Enterococcus faecium; details: for MIC median / MIC range: ATCC 51559, 18 h
Experimental: as §1

[5] = test system: human blood (red blood cells); assay: Hemolysis (hemoglobin release assay); assay type: cell-based; details: concentrations above 100 µM, range applied 1-900 µM, 2 h, 37 °C
Experimental: Hemolytic activity was determined by the hemoglobin release assay on a 96-well plate. Fresh venal blood was collected from volunteers in anticoagulant tubes. The blood samples were centrifuged for 3 min at 2500 rpm, and afterwards, the supernatant was discarded and PBS (pH 7.4) was added. The tubes were gently inverted, and the previous step was repeated two times. Substances were serial two-fold diluted in PBS (pH 7.4) on a 96-well V-bottom plate. Triton X-100 (1% in PBS) was used as a positive control (Xpos). […] In total, 50 µL of the purified blood samples was added to all columns. After 2 h incubation at 37 °C, the 96-well plate was centrifuged at 4000 rpm for 2 min. The supernatant was transferred to a new flat-bottom 96-well plate and absorption was measured at 554 nm. The percentage of hemolysis was calculated according to the following equation:% hemolysis = 100 × (Xsample − Xblank)/(Xpos − Xblank).(1)

[6] = test system: human blood (red blood cells); details: cited from earlier work
Experimental: In order to investigate the hemolytic behavior, human blood from healthy volunteers was taken and exposed to different concentrations of selected conjugates. As a control, unmodified vancomycin, known to have non-hemolytic properties up to 12 mM [40], was used (Figure 4).

[7] = comparison statement of the abstract, no reference given; cited from earlier work
Source text: Multidrug-resistant bacteria represent one of the most important health care problems worldwide. While there are numerous drugs available for standard therapy, there are only a few compounds capable of serving as a last resort for severe infections. Therefore, approaches to control multidrug-resistant bacteria must be implemented. Here, a strategy of reactivating the established glycopeptide antibiotic vancomycin by structural modification with polycationic peptides and subsequent fatty acid conjugation to overcome the resistance of multidrug-resistant bacteria was followed. This study especia ...

Compound | MIC median [1] [µg/mL] | MIC range [1] [µg/mL] | MIC median [2] [µg/mL] | MIC range [2] [µg/mL] | MIC median [3] [µg/mL] | MIC median [4] [µg/mL] | MIC range [4] [µg/mL] | resistance against vancomycin up to (concentration) ([2]; E. faecium UL602570, vanA clinical isolate) | hemolytic effect at higher concentrations [5] | non-hemolytic properties up to (concentration) [6] | resistant to up to (vancomycin concentration) ([4]; E. faecium ATCC 51559, vanA) | excretion route [7]
CCCCCCCCCCCC(=O)N[C@@H](CCCNC(=N)N)C(=O)N[C@@H](CCCNC(=N)N)C(=O)N[C@@H](CCCNC(=N)N)C(=O)N[C@@H](CSC1CC(=O)N(CC2CCC(C(=O)N(C)[C@H](CC(C)C)C(=O)N[C@H]3C(=O)N[C@@H](CC(N)=O)C(=O)N[C@H]4C(=O)N[C@H]5C(=O)N[C@H](C(=O)N[C@H](C(=O)O)c6cc(O)cc(O)c6-c6cc5ccc6O)[C@H](O)c5ccc(c(Cl)c5)Oc5cc4cc(c5O[C@@H]4O[C@H](CO)[C@@H](O)[C@H](O)[C@H]4O[C@H]4C[C@](C)(N)[C@H](O)[C@H](C)O4)Oc4ccc(cc4Cl)[C@H]3O)CC2)C1=O)C(N)=O (stereo partly shown) [VN-R3C-C12] | 2.5 (≈ 1.02 µM) | 1 to 4 | 2.37 (≈ 0.971 µM) | 2.37 to 4.73 | 4 (≈ 1.64 µM) | 4.72 (≈ 1.93 µM) | 4.72 to 9.44 | – | – | – | – | –
CCCCCCCCCCCC(=O)N[C@@H](CCCNC(=N)N)C(=O)N[C@@H](CCCNC(=N)N)C(=O)N[C@@H](CCCNC(=N)N)C(=O)N[C@@H](CSC1CC(=O)N(CC2CCC(C(=O)NCCN[C@@]3(C)C[C@H](O[C@H]4[C@H](Oc5c6cc7cc5Oc5ccc(cc5Cl)[C@@H](O)[C@@H](NC(=O)[C@@H](CC(C)C)NC)C(=O)N[C@@H](CC(N)=O)C(=O)N[C@H]7C(=O)N[C@H]5C(=O)N[C@H](C(=O)N[C@H](C(=O)O)c7cc(O)cc(O)c7-c7cc5ccc7O)[C@H](O)c5ccc(c(Cl)c5)O6)O[C@H](CO)[C@@H](O)[C@@H]4O)O[C@@H](C)[C@H]3O)CC2)C1=O)C(N)=O (stereo partly shown) [VV-R3C-C12] | 2.5 (≈ 1.01 µM) | 0.5 to 4 | 0.24 (≈ 0.0967 µM) | 0.06 to 0.48 | 4 (≈ 1.61 µM) | 3.88 (≈ 1.56 µM) | 3.88 to 7.75 | – | – | – | – | –
CN[C@H](CC(C)C)C(=O)N[C@H]1C(=O)N[C@@H](CC(N)=O)C(=O)N[C@H]2C(=O)N[C@H]3C(=O)N[C@H](C(=O)N[C@H](C(=O)O)c4cc(O)cc(O)c4-c4cc3ccc4O)[C@H](O)c3ccc(c(Cl)c3)Oc3cc2cc(c3O[C@@H]2O[C@H](CO)[C@@H](O)[C@H](O)[C@H]2O[C@H]2C[C@](C)(N)[C@H](O)[C@H](C)O2)Oc2ccc(cc2Cl)[C@H]1O [vancomycin] | – | – | – | – | – | – | – | up to 640 mg/L | could neither be observed | up to 12 mM | up to 1024 mg/L | rapidly excreted by the kidneys
